Test results taken from PubChem BioAssay (NCI).
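Tested at 5 concentrations; 48 h exposure; 96-well plates; endpoints linearly interpolated, else capped at highest concentration. GI50 marks 50% less growth. TGI marks complete inhibition of growth.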

Legend:
Test in all cases: NCI tumour cell line growth inhibition, 48 h
KM12 colon = system: KM12 colon
SF-268 CNS = system: SF-268 CNS
MCF7 breast = system: MCF7 breast
EKVX NSCLC = system: EKVX NSCLC
HL-60(TB) leukemia = system: HL-60(TB) leukemia
U251 CNS = system: U251 CNS
UACC-62 melanoma = system: UACC-62 melanoma
MDA-MB-468 breast = system: MDA-MB-468 breast
MDA-MB-435 = system: MDA-MB-435
SK-MEL-28 melanoma = system: SK-MEL-28 melanoma
NCI-H23 lung = system: NCI-H23 lung
SF-539 CNS = system: SF-539 CNS
NCI-H522 lung = system: NCI-H522 lung
M14 melanoma = system: M14 melanoma
UACC-257 melanoma = system: UACC-257 melanoma
A498 renal = system: A498 renal
UO-31 renal = system: UO-31 renal
NCI-H226 lung = system: NCI-H226 lung
HCC-2998 colon = system: HCC-2998 colon
SNB-19 CNS = system: SNB-19 CNS
HCT-116 colon = system: HCT-116 colon
SN12C renal = system: SN12C renal
SR leukemia = system: SR leukemia
MOLT-4 leukemia = system: MOLT-4 leukemia
PC-3 prostate = system: PC-3 prostate
DU-145 prostate = system: DU-145 prostate
T-47D breast = system: T-47D breast
RXF 393 renal = system: RXF 393 renal

O=C(/C=C/c1ccccc1)c1nc2ccccc2n1Cc1ccc(Br)cc1
GI50 (KM12 colon): 2.95 µM | TGI (KM12 colon): 10.2 µM | GI50 (SF-268 CNS): 6.92 µM | TGI (SF-268 CNS): > 100 µM | GI50 (MCF7 breast): 1.78 µM | TGI (MCF7 breast): 6.26 µM | GI50 (EKVX NSCLC): 2.75 µM | TGI (EKVX NSCLC): 8.44 µM | GI50 (HL-60(TB) leukemia): 1.61 µM | TGI (HL-60(TB) leukemia): 4.17 µM | GI50 (U251 CNS): 1.65 µM | TGI (U251 CNS): 3.2 µM | GI50 (UACC-62 melanoma): 1.85 µM | TGI (UACC-62 melanoma): 4.68 µM | GI50 (MDA-MB-468 breast): 1.89 µM | TGI (MDA-MB-468 breast): 3.81 µM | GI50 (MDA-MB-435): 2.25 µM | TGI (MDA-MB-435): 5.95 µM | GI50 (SK-MEL-28 melanoma): 1.84 µM | TGI (SK-MEL-28 melanoma): 3.74 µM | GI50 (NCI-H23 lung): 2.01 µM | TGI (NCI-H23 lung): 4.29 µM | GI50 (SF-539 CNS): 1.86 µM | TGI (SF-539 CNS): 3.54 µM | GI50 (NCI-H522 lung): 1.84 µM | TGI (NCI-H522 lung): 4.04 µM | GI50 (M14 melanoma): 2.16 µM | TGI (M14 melanoma): 4.77 µM | GI50 (UACC-257 melanoma): 3.12 µM | TGI (UACC-257 melanoma): 11.9 µM | GI50 (A498 renal): 15.1 µM | TGI (A498 renal): 28.4 µM | GI50 (UO-31 renal): 1.46 µM | TGI (UO-31 renal): 2.97 µM | GI50 (NCI-H226 lung): 3.8 µM | TGI (NCI-H226 lung): 15.9 µM | GI50 (HCC-2998 colon): 1.83 µM | TGI (HCC-2998 colon): 3.42 µM | GI50 (SNB-19 CNS): 1.81 µM | TGI (SNB-19 CNS): 3.64 µM | GI50 (HCT-116 colon): 1.71 µM | TGI (HCT-116 colon): 3.16 µM | GI50 (SN12C renal): 3.46 µM | TGI (SN12C renal): 12.4 µM | GI50 (SR leukemia): 1.97 µM | TGI (SR leukemia): 6.01 µM | GI50 (MOLT-4 leukemia): 1.84 µM | TGI (MOLT-4 leukemia): 5.47 µM | GI50 (PC-3 prostate): 3.14 µM | TGI (PC-3 prostate): 9.31 µM | GI50 (DU-145 prostate): 3.96 µM | TGI (DU-145 prostate): 18.6 µM | GI50 (T-47D breast): 2.36 µM | TGI (T-47D breast): 10.2 µM | GI50 (RXF 393 renal): 1.51 µM | TGI (RXF 393 renal): 2.84 µM
